Data on 37 molecules can be found in patent US20140120083A1, “TREATMENT OF CANCERS USING PI3 KINASE ISOFORM MODULATORS” (INFINITY PHARMACEUTICALS, INC., priority 2012, published 2014).

What all share (assay type): biochemical
For one assay, the target named is PI3K β (Homo sapiens, UniProt P42338). The assay can be described thus: In vitro IC50, PI3K β. The source says:
(§1) An exemplary system is PI 3-Kinase (human) HTRF™ Assay from Upstate.

For the next assay, the target named is PI3K δ (Homo sapiens, UniProt O00329). The assay can be described thus: In vitro IC50, PI3K δ. The arrangement: purchased Upstate.
Source text: as §1

The target of the next assay is T1, PI3K α (Homo sapiens, UniProt P42336).
T1 construct: purchased Upstate
Put plainly: In vitro IC50, PI3K α.
Source text: as §1

In the next assay the target is T2, PI3K γ (Homo sapiens, UniProt P48736).
T2 construct: purchased Sigma
The assay can be described thus: In vitro IC50, PI3K γ.
Source text: as §1

T2 sequence (P48736 whole entry): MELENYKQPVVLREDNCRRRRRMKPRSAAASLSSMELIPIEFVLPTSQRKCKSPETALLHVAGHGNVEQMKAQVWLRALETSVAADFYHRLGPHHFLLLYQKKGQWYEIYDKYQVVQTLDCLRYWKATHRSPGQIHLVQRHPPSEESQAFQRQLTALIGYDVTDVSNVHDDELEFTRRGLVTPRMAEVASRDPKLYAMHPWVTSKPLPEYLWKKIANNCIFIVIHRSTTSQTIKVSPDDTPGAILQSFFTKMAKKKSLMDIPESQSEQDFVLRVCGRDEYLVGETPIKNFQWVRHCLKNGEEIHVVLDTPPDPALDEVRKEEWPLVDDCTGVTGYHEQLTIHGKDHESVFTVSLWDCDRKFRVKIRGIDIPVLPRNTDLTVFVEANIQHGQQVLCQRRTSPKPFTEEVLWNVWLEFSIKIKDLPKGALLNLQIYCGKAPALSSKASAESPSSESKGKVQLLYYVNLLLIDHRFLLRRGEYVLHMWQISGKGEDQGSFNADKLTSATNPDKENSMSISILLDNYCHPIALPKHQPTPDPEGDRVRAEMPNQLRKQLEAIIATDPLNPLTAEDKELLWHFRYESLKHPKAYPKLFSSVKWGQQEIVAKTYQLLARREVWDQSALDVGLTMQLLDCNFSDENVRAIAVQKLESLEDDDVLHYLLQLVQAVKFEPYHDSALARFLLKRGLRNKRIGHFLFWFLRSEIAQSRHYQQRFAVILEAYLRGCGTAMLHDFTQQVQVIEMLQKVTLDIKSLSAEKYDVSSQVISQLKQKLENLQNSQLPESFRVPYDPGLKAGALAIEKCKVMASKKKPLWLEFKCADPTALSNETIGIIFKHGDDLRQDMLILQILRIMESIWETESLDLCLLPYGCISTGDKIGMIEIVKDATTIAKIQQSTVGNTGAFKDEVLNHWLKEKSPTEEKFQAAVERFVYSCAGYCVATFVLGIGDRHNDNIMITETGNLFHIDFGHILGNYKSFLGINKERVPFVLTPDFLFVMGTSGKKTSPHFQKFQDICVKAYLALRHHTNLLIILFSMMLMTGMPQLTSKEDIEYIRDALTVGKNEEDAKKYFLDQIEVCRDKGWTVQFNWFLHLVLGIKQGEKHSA
Sequence of PI3K δ (O00329 whole entry): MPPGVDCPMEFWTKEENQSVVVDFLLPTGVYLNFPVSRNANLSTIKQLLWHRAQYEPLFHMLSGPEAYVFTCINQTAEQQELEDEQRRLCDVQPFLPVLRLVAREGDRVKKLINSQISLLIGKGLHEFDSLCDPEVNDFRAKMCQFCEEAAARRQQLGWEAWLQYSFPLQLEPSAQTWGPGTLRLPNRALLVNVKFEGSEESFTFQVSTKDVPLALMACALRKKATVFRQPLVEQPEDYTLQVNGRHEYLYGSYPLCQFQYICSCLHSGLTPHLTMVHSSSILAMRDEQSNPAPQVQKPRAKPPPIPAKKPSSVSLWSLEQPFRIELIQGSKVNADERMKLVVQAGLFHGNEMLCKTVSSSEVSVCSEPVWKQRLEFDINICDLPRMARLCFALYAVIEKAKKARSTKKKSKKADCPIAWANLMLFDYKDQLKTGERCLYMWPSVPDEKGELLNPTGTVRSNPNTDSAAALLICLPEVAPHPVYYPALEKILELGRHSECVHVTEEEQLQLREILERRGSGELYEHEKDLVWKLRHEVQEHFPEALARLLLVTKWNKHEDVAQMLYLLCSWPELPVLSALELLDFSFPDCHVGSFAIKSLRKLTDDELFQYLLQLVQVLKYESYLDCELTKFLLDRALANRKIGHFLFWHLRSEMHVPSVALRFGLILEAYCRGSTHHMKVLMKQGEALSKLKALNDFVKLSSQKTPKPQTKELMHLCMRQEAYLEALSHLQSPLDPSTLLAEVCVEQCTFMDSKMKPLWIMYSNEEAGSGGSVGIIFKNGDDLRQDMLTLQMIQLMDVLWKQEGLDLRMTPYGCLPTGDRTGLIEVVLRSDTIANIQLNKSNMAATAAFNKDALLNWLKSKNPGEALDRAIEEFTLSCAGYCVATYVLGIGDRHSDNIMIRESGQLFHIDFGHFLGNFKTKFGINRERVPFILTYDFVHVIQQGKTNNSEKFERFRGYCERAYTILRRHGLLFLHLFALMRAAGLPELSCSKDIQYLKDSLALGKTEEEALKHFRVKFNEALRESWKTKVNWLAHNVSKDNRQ
Sequence of PI3K δ (P27986 whole entry partner): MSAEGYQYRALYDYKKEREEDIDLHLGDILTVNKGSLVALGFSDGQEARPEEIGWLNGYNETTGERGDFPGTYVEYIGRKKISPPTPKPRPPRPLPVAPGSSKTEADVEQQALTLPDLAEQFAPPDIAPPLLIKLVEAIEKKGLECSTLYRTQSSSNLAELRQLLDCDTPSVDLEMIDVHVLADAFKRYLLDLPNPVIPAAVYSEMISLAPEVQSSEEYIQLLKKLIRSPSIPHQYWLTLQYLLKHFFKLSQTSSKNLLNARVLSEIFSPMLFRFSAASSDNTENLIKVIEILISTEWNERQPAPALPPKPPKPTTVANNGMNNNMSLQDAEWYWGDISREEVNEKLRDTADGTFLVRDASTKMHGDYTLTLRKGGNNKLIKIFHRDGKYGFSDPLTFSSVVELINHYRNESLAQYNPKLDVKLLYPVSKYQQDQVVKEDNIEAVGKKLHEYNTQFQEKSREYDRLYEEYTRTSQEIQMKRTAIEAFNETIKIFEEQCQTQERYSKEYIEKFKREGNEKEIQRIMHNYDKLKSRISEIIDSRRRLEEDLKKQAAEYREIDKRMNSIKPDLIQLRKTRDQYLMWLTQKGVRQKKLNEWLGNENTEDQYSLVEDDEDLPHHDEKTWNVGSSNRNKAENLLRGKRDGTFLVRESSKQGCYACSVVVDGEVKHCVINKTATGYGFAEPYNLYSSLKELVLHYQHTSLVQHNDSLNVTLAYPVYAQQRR
Sequence of PI3K β (P42338 whole entry): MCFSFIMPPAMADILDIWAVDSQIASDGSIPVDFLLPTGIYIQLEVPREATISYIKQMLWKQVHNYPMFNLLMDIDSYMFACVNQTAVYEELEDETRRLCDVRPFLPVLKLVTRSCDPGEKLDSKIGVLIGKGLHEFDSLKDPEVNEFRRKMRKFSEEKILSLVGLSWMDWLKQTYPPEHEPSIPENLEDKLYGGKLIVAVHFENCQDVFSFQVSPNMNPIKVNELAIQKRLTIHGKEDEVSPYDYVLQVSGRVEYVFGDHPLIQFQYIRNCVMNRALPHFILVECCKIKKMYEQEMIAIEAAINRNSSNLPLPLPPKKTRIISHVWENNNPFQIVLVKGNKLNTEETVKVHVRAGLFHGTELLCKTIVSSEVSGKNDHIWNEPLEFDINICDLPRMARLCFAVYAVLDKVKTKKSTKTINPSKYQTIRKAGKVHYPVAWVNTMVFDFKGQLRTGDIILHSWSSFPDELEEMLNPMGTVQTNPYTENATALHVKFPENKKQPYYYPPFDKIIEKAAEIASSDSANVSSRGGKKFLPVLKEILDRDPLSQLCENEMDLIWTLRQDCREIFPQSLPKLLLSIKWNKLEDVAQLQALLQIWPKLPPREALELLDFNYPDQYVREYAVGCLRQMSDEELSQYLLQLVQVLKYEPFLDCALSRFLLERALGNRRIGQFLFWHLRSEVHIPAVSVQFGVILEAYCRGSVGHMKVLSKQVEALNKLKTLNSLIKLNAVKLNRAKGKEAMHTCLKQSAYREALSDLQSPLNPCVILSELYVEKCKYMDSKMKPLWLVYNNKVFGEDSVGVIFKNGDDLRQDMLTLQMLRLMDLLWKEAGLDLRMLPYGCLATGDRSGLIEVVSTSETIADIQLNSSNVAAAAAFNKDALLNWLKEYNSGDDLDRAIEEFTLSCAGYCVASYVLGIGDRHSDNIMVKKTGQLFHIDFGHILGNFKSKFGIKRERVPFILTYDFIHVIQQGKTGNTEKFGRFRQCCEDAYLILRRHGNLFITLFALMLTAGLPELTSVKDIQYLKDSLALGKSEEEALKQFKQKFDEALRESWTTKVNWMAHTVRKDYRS
T1 sequence (P42336 whole entry): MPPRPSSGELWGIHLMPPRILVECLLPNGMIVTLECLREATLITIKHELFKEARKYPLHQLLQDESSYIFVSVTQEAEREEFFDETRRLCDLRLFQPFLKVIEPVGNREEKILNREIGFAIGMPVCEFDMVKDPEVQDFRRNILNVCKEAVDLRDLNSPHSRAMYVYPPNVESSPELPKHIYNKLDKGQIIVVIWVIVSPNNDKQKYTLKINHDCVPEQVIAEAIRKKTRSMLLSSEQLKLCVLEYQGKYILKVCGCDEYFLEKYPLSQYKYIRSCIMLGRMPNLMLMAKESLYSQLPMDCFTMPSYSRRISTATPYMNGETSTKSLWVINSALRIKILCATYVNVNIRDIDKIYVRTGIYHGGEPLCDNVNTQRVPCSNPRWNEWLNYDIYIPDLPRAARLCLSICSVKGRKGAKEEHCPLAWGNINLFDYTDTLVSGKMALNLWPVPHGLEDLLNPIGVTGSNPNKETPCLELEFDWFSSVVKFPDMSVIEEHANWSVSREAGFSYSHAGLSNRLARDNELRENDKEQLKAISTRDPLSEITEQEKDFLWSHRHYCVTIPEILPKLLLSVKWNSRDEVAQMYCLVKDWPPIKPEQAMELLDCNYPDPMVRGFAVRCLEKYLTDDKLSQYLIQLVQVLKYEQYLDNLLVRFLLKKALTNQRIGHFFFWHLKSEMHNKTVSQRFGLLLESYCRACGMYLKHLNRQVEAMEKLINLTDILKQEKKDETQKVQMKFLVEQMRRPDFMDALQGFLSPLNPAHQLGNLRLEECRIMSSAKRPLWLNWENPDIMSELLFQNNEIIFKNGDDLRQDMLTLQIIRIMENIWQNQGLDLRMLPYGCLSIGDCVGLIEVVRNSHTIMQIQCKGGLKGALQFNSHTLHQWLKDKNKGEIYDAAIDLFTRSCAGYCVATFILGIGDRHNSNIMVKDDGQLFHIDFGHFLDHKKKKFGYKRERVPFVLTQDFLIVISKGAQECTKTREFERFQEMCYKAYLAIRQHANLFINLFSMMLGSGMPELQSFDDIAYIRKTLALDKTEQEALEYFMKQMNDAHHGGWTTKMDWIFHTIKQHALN
T1 sequence (P27986 whole entry partner): as the sequence (P27986 whole entry partner) above

Usually IC50 stands for the concentration that inhibits the measured activity by half. On to `COc1ccccc1-n1c(Cn2nc(C#C[C@@H](C)O)c3c(N)ncnc32)cc2cccc(C)c2c1=O` [Compound 80], for which the IC50 on PI3K β is above 10 µM; on PI3K δ, below 0.1 µM; at PI3K α, above 10 µM; at PI3K γ, below 1 µM.
On to `Cc1cccc2cc([C@H](C)Nc3nc(Cl)nc4[nH]cnc34)n(-c3ccccc3)c(=O)c12` [Compound 244], for which the IC50 is below 10 µM on PI3K β, below 0.1 µM on PI3K δ, below 10 µM against PI3K α and below 0.1 µM against PI3K γ.
For the molecule `Cc1cccc2cc(C(C)Nc3nc(N)nc4[nH]cnc34)n(-c3ccccc3)c(=O)c12` (stereo not shown) [Compound 320], the IC50 against PI3K β was below 0.1 µM; at PI3K δ, below 0.1 µM; against PI3K α, below 1 µM; against PI3K γ, below 0.1 µM.
In the case of `CCn1c(Cn2nc(-c3ccc4nc(NC(C)=O)sc4c3)c3c(N)ncnc32)cc2cccc(C)c2c1=O` [Compound 176], the 50% inhibitory concentration (IC50) on PI3K β is below 1 µM; against PI3K δ it was below 0.1 µM; against PI3K α, below 0.1 µM; at PI3K γ, below 0.1 µM.
As to `Cc1cccc2cc(Cn3nc(-c4ccn[nH]4)c4c(N)ncnc43)n(-c3ccccc3F)c(=O)c12` [Compound 183], the IC50 is above 10 µM against PI3K β, below 1 µM at PI3K δ, above 10 µM on PI3K α and below 10 µM at PI3K γ.
For `Cc1cccc2cc(Cn3nc(-c4cn[nH]c4)c4c(N)ncnc43)n(-c3ccccc3)c(=O)c12` [Compound 206], the IC50 against PI3K β is below 10 µM; against PI3K δ it was below 0.1 µM; on PI3K α it was below 10 µM; against PI3K γ, below 1 µM.
Regarding `Cc1cccc2cc(Cn3nc(C#C[C@@H](C)O)c4c(N)ncnc43)n(C(C)C)c(=O)c12` [Compound 61], the IC50 against PI3K β was below 10 µM; on PI3K δ it was below 0.1 µM; against PI3K α, above 10 µM; against PI3K γ, below 10 µM.
For the molecule `Cc1cccc2cc(Cn3nc(-c4cccc(O)c4)c4c(N)ncnc43)n(-c3ccccc3Cl)c(=O)c12` [Compound 96], the IC50 at PI3K β was below 10 µM; against PI3K δ it was below 0.1 µM; at PI3K α, above 10 µM; at PI3K γ it was below 0.1 µM.
`Cc1cccc2cc([C@H](C)NC3CCOCC3)n(-c3ccccc3)c(=O)c12` [Compound 259]: the IC50 on PI3K β, against PI3K δ, against PI3K α and on PI3K γ was above 10 µM in each case.
Turning to `Cc1ccccc1-n1c(Cn2nc(/C=C/C(=O)N3CCOCC3)c3c(N)ncnc32)cc2cccc(C)c2c1=O` [Compound 192], the IC50 was above 10 µM at PI3K β, below 1 µM against PI3K δ, above 10 µM against PI3K α and above 10 µM on PI3K γ.
For the molecule `Cc1ccccc1-n1c(Cn2nc(-c3cnn(C)c3)c3c(N)ncnc32)cc2cccc(C)c2c1=O` [Compound 165], the IC50 is above 10 µM against PI3K β, below 10 µM against PI3K δ, above 10 µM against PI3K α and below 1 µM at PI3K γ.
`Cc1ccccc1-n1c(Cn2nc(C#N)c3c(N)ncnc32)cc2cccc(C)c2c1=O` [Compound 170]: the IC50 is above 10 µM on PI3K β, below 0.1 µM against PI3K δ, above 10 µM at PI3K α and below 10 µM on PI3K γ.
In the case of `Cc1ccccc1-n1c(Cn2nc(CCC(N)=O)c3c(N)ncnc32)cc2cccc(C)c2c1=O` [Compound 175], the IC50 on PI3K β was above 10 µM; against PI3K δ, below 1 µM; at PI3K α it was above 10 µM; on PI3K γ it was below 10 µM.
Take `C=Cc1nn(Cc2cc3cccc(C)c3c(=O)n2-c2ccccc2C)c2ncnc(N)c12` [Compound 180]: the IC50 is above 10 µM on PI3K β, below 0.1 µM against PI3K δ, above 10 µM against PI3K α and below 1 µM against PI3K γ.
Consider `Cc1cccc2cc(C(C)Nc3ncnc4[nH]cnc34)n(-c3cc(F)cc(F)c3)c(=O)c12` (stereo not shown) [Compound 222], for which the IC50 on PI3K β is above 10 µM; against PI3K δ, below 0.1 µM; against PI3K α, above 10 µM; against PI3K γ, below 1 µM.
Take `Cc1cccc2cc(Cn3nc(Cl)c4c(N)ncnc43)n(-c3ccccc3F)c(=O)c12` [Compound 34]: the IC50 at PI3K β is above 10 µM; against PI3K δ, below 1 µM; against PI3K α, above 10 µM; at PI3K γ it was below 10 µM.
As to `Cc1cccc2cc([C@H](C)Nc3ncnc4[nH]c(Cl)nc34)n(C3CC3)c(=O)c12` [Compound 280], the concentration for half-maximal inhibition (IC50) against PI3K β, on PI3K δ, against PI3K α and at PI3K γ was above 10 µM each time.
Regarding `Cc1cccc2cc(Cn3nc(-c4ccc(O)c(F)c4)c4c(N)ncnc43)n(-c3ccccc3F)c(=O)c12` [Compound 29], the IC50 on PI3K β is above 10 µM; against PI3K δ it was below 1 µM; at PI3K α, above 10 µM; against PI3K γ, below 0.1 µM.
As to `Cc1cccc2cc(Cn3nc(-c4cc(O)cc(F)c4)c4c(N)ncnc43)n(C(C)C)c(=O)c12` [Compound 66], the IC50 at PI3K β is below 1 µM; against PI3K δ, below 0.1 µM; on PI3K α it was below 10 µM; against PI3K γ, below 1 µM.
`Cc1cccc2cc([C@H](C)Nc3nc(N)ncc3C(F)(F)F)n(-c3ccccc3)c(=O)c12` [Compound 324]: the IC50 against PI3K β is below 10 µM; against PI3K δ it was below 0.1 µM; against PI3K α, above 10 µM; against PI3K γ, below 0.1 µM.
Take `Cc1cccc2cc(Cn3nc(C#C[C@@H](C)O)c4c(N)ncnc43)n(-c3ccccc3O)c(=O)c12` [Compound 91]: the IC50 is above 10 µM against PI3K β, below 0.1 µM against PI3K δ, above 10 µM at PI3K α and below 10 µM against PI3K γ.
For `Cc1cccnc1-n1c(Cn2nc(-c3ccc(Cl)c(O)c3)c3c(N)ncnc32)cc2cccc(C)c2c1=O` [Compound 72], the IC50 at PI3K β is below 10 µM; against PI3K δ, below 0.1 µM; against PI3K α it was above 10 µM; at PI3K γ, below 0.1 µM.
Regarding `COc1ccccc1-n1c(Cn2nc(-c3cccc(O)c3)c3c(N)ncnc32)cc2cccc(C)c2c1=O` [Compound 74], the half-inhibitory concentration (IC50) on PI3K β is below 10 µM; at PI3K δ, below 0.1 µM; against PI3K α, above 10 µM; against PI3K γ, below 0.1 µM.
Consider `Cc1cccc2cc(Cn3nc(I)c4c(N)ncnc43)n(C3CCCCC3)c(=O)c12` [Compound 87], for which the IC50 was above 10 µM against PI3K β, below 1 µM against PI3K δ, above 10 µM against PI3K α and below 0.1 µM against PI3K γ.
As to `Cc1cccc2cc([C@H](C)Nc3cc(N)nc(Cl)n3)n(-c3ccccc3)c(=O)c12` [Compound 285], the half-maximal inhibitory concentration (IC50) against PI3K β was above 10 µM; on PI3K δ, below 1 µM; on PI3K α, above 10 µM; at PI3K γ, below 10 µM.
With `Cc1cccc2cc(Cn3nc(C#C[C@@H](C)O)c4c(N)ncnc43)n(C3CCCC3)c(=O)c12` [Compound 65], the IC50 at PI3K β was below 10 µM; against PI3K δ it was below 0.1 µM; at PI3K α, above 10 µM; against PI3K γ, below 10 µM.
For `Cc1cccc2cc([C@@H](C)Nc3ncnc4[nH]cnc34)n(C3CCC3)c(=O)c12` [Compound 197], the IC50 is above 10 µM against PI3K β, above 10 µM on PI3K δ, above 10 µM against PI3K α and below 10 µM against PI3K γ.
On to `Cc1cccnc1-n1c(Cn2nc(-c3cc(O)cc(F)c3)c3c(N)ncnc32)cc2ccccc2c1=O` [Compound 93], for which the IC50 was above 10 µM on PI3K β, below 0.1 µM on PI3K δ, above 10 µM on PI3K α and below 1 µM against PI3K γ.
In the case of `Cc1cccc2cc([C@H](C)Nc3ncnc4[nH]cc(Br)c34)n(-c3ccccc3)c(=O)c12` [Compound 257], the IC50 is below 0.1 µM on PI3K β, below 0.1 µM at PI3K δ, below 1 µM on PI3K α and below 0.1 µM against PI3K γ.
Regarding `Cc1cccc2cc([C@H](C)Nc3ncnc4[nH]c(Cl)nc34)n(-c3ccccc3)c(=O)c12` [Compound 261], the IC50 at PI3K β was above 10 µM; at PI3K δ it was above 10 µM; against PI3K α, above 10 µM; on PI3K γ, below 10 µM.
With `COc1cccc(-c2nn(Cc3cc4cccc(C)c4c(=O)n3-c3ccccc3C)c3ncnc(N)c23)c1` [Compound 106], the IC50 against PI3K β is below 10 µM; on PI3K δ, below 1 µM; against PI3K α, above 10 µM; on PI3K γ it was below 1 µM.
For the molecule `Cc1ccccc1-n1c(Cn2nc(C(N)=O)c3c(N)ncnc32)cc2cccc(C)c2c1=O` [Compound 298], the IC50 is below 10 µM at PI3K β, below 1 µM at PI3K δ, above 10 µM against PI3K α and below 1 µM on PI3K γ.
Consider `Cc1cccc2cc(Cn3nc(-c4ccc(O)cc4)c4c(N)ncnc43)n(-c3ccccc3F)c(=O)c12` [Compound 46], for which the IC50 on PI3K β was above 10 µM; against PI3K δ it was below 10 µM; against PI3K α, above 10 µM; against PI3K γ, below 1 µM.
Regarding `COC(=O)c1nn(CC2=Cc3cccc(C)c3C(=O)C2c2ccccc2C)c2ncnc(N)c12` (stereo not shown) [Compound 299], the IC50 at PI3K β was above 10 µM; on PI3K δ, below 1 µM; against PI3K α, above 10 µM; against PI3K γ, below 10 µM.
Take `CCC(Nc1ncnc2[nH]cnc12)c1cc2ccccc2c(=O)n1-c1ccccc1` (stereo not shown) [Compound 221]: the IC50 against PI3K β is above 10 µM; on PI3K δ, below 0.1 µM; against PI3K α, above 10 µM; on PI3K γ, below 10 µM.
On to `CCC(Nc1ncnc2[nH]cnc12)c1cc2cccc(C)c2c(=O)n1C1CCC1` (stereo not shown) [Compound 212], for which the IC50 against PI3K β is below 10 µM; against PI3K δ, below 0.1 µM; against PI3K α, above 10 µM; on PI3K γ, below 1 µM.
As to `Cc1cccc2cc(Cn3nc(-c4cc(O)cc(F)c4)c4c(N)ncnc43)n(C3CCCC3)c(=O)c12` [Compound 63], the IC50 against PI3K β is below 10 µM; on PI3K δ, below 0.1 µM; on PI3K α, below 10 µM; against PI3K γ it was below 0.1 µM.
